For 21 molecules, T/C results are on record in PubChem BioAssay AID330 (DTP/NCI, 2004).

The subject of this assay is P388 leukemia ip, CD2F1 mice, survival T/C. In words: NCI In Vivo Anticancer Drug Screen. Data for tumor model P388 Leukemia (intraperitoneal) in CD2F1 (CDF1) mice. The settings on record: endpoint: median survival time, higher = longer survival. In a few lines: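 Mice carrying the transplanted tumor received test compound or vehicle. Survival was recorded in each group, and the value is the treated-group measurement divided by that of the vehicle-treated control group.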

[1] abbreviates: dose: 60.0 mg/kg/injection, schedule: Q01DX005 (ip), vehicle: saline with Tween-80.
Setting [2] is: dose: 120.0 mg/kg/injection, schedule: Q01DX005 (ip), vehicle: saline with Tween-80.
Setting [3] is: dose: 240.0 mg/kg/injection, schedule: Q01DX005 (ip), vehicle: saline with Tween-80.
[4] abbreviates: dose: 50.0 mg/kg/injection, schedule: Q01DX009 (ip), vehicle: saline with Tween-80.
[5] abbreviates: dose: 100.0 mg/kg/injection, schedule: Q01DX009 (ip), vehicle: saline with Tween-80.
Where [6] appears, read: dose: 200.0 mg/kg/injection, schedule: Q01DX009 (ip), vehicle: saline with Tween-80.
Setting [7] is: dose: 50.0 mg/kg/injection, schedule: Q01DX009 (ip), vehicle: Klucel (hydroxypropylcellulose) (HPC).
[8] abbreviates: dose: 100.0 mg/kg/injection, schedule: Q01DX009 (ip), vehicle: Klucel (hydroxypropylcellulose) (HPC).
The mark [9] stands for this setting: dose: 50.0 mg/kg/injection, schedule: Q01DX005 (ip), vehicle: Klucel (hydroxypropylcellulose) (HPC).
The mark [10] stands for this setting: dose: 100.0 mg/kg/injection, schedule: Q01DX005 (ip), vehicle: Klucel (hydroxypropylcellulose) (HPC).

Structures are written as SMILES. Values joined by “and” are separate entries in the source; they are usually repeats but may differ in a detail not shown here. Equal values may be shown once. Inconclusive results and toxic doses are left out.

In the case of `CCCCc1c(OCC)cc2n(CC)c3ccccc3n2c1=O`, the T/C under setting [1] was 107 % of control, the T/C under setting [2] is 94 % of control and the T/C under setting [3] was 94 % of control.
`COc1cc(C=Nc2cc(Cl)c(O)c(Cl)c2)ccc1N(CCCl)CCCl`: the T/C reads like this: (dose: 12.0 mg/kg/injection, schedule: Q04DX003 (ip), vehicle: saline) 204 % of control; (dose: 17.0 mg/kg/injection, schedule: Q04DX003 (ip), vehicle: saline) 263 % of control; (dose: 25.0 mg/kg/injection, schedule: Q04DX003 (ip), vehicle: saline) 100 % of control.
With `O=C(NCCCl)OCC(Cl)(Cl)Cl`, the T/C runs as follows: under setting [4], 91 % of control; under setting [5], 100 % of control; under setting [6], 98 % of control.
For `CCCCCCCCCCCCCCCCCCCCC(C(=O)OCC)S(=O)(=O)O` (stereo not drawn), the T/C by setting is: under setting [7], 116 % of control; under setting [8], 111 % of control.
Regarding `N=C(N)SCc1c2ccccc2cc2ccccc12`, the T/C was 109 % of control (dose: 22.0 mg/kg/injection, schedule: Q01DX009 (ip), vehicle: saline with Tween-80); 109 % of control (dose: 33.0 mg/kg/injection, schedule: Q01DX009 (ip), vehicle: saline with Tween-80); 109 % of control under setting [4]; 118 % of control (dose: 75.0 mg/kg/injection, schedule: Q01DX009 (ip), vehicle: saline with Tween-80); 118 % of control (dose: 100.0 mg/kg/injection, schedule: Q04DX003 (ip), vehicle: saline with Tween-80).
With `COC(=O)/C=C/CCO`, the T/C runs as follows: under setting [4], 111 % of control; under setting [5], 95 % of control; under setting [6], 108 % of control.
Regarding `O=[N+]([O-])c1cn[n+]([O-])c2ccccc12`, the T/C by setting is: (dose: 12.5 mg/kg/injection, schedule: Q01DX009 (ip), vehicle: saline with Tween-80) 119 % of control; under setting [4], 86 % of control.
`Cc1ccc2c(NCCCCCCCCNc3c4ccccc4nc4c(C)c(C)ccc34)c3ccccc3nc2c1C`: the T/C (dose: 10.0 mg/kg/injection, schedule: Q01DX009 (ip), vehicle: other) was 156 % of control.
With `O=C1CSC(c2ccc(F)c(F)c2)N1c1nncs1` (stereo not drawn), the T/C is 99 % of control under setting [1], 101 % of control under setting [2] and 101 % of control under setting [3].
For the molecule `COC(=O)C12Oc3ccc(-c4ccc5c(c4O)C(=O)C4=CCC(C)C(O)C4(C(=O)OC)O5)c(O)c3C(=O)C1=CCC(C)C2O` (stereo not drawn), the T/C (dose: 2.5 mg/kg/injection, schedule: Q01DX009 (ip), vehicle: saline with Tween-80) is 91 % of control; the T/C (dose: 5.0 mg/kg/injection, schedule: Q01DX009 (ip), vehicle: saline with Tween-80) was 95 % of control; the T/C (dose: 10.0 mg/kg/injection, schedule: Q01DX009 (ip), vehicle: saline with Tween-80) is 88 % of control.
Consider `CCOC(=O)Nc1cc2c(c(N)n1)N=C(CN(C)c1ccccc1)CN2`, for which the T/C was 112 % of control and 123 % of control (dose: 1.56 mg/kg/injection, schedule: Q01DX009 (ip), vehicle: Klucel (hydroxypropylcellulose) (HPC)); 100 % of control and 111 % of control (dose: 3.12 mg/kg/injection, schedule: Q01DX009 (ip), vehicle: Klucel (hydroxypropylcellulose) (HPC)); 106 % of control and 123 % of control (dose: 6.25 mg/kg/injection, schedule: Q01DX009 (ip), vehicle: Klucel (hydroxypropylcellulose) (HPC)); 124 % of control (dose: 12.5 mg/kg/injection, schedule: Q01DX009 (ip), vehicle: Klucel (hydroxypropylcellulose) (HPC)); 109 % of control and 123 % of control (dose: 25.0 mg/kg/injection, schedule: Q01DX009 (ip), vehicle: Klucel (hydroxypropylcellulose) (HPC)); 98 % of control under setting [7]. Also, the T/C runs as follows: (dose: 67.0 mg/kg/injection, schedule: Q01DX001 (ip), vehicle: Klucel (hydroxypropylcellulose) (HPC)) 195 % of control; (dose: 100.0 mg/kg/injection, schedule: Q01DX001 (ip), vehicle: Klucel (hydroxypropylcellulose) (HPC)) 178 % of control.
As to `O=C1C(=O)C(CN2CCOCC2)=C(N2CCOCC2)C(N2CCOCC2)=C1CN1CCOCC1`, the T/C runs as follows: (dose: 25.0 mg/kg/injection, schedule: Q01DX005 (ip), vehicle: saline with Tween-80) 100 % of control; (dose: 50.0 mg/kg/injection, schedule: Q01DX005 (ip), vehicle: saline with Tween-80) 100 % of control; (dose: 100.0 mg/kg/injection, schedule: Q01DX005 (ip), vehicle: saline with Tween-80) 98 % of control; (dose: 200.0 mg/kg/injection, schedule: Q01DX005 (ip), vehicle: saline with Tween-80) 100 % of control.
In the case of `C=C(C)C(=O)NC(C)C(=O)O` (stereo not drawn), the T/C is 106 % of control (dose: 50.0 mg/kg/injection, schedule: Q01DX009 (ip), vehicle: saline); 100 % of control (dose: 100.0 mg/kg/injection, schedule: Q01DX009 (ip), vehicle: saline); 100 % of control (dose: 200.0 mg/kg/injection, schedule: Q01DX009 (ip), vehicle: saline).
Regarding `CCC1CC2CN(CCc3c([nH]c4ccccc34)C(C(=O)OC)(c3cc4c(cc3OC)N(C)C3C(O)(C(=O)OC)C(OC(C)=O)C5(CC)CCCN6CCC43C65)C2)C1` (stereo not drawn), the T/C (dose: 1.0 mg/kg/injection, schedule: Q01DX001 (ip), vehicle: water) was 124 % of control; the T/C (dose: 2.0 mg/kg/injection, schedule: Q01DX001 (ip), vehicle: water) was 122 % of control; the T/C (dose: 16.0 mg/kg/injection, schedule: Q01DX001 (ip), vehicle: water) was 153 % of control and 154 % of control; the T/C (dose: 32.0 mg/kg/injection, schedule: Q01DX001 (ip), vehicle: water) is 163 % of control.
Regarding `CN1CCN=C1c1ccc(NC(=O)c2ccc(C(=O)Nc3ccc(C4=NCCN4C)cc3)c(N)c2)cc1`, the T/C runs as follows: (dose: 1.32 mg/kg/injection, schedule: Q01DX009 (ip), vehicle: saline) 120 % of control; (dose: 3.0 mg/kg/injection, schedule: Q01DX009 (ip), vehicle: saline) 150 % of control; (dose: 5.0 mg/kg/injection, schedule: Q04DX003 (ip), vehicle: saline with Tween-80) 95 % of control; (dose: 10.0 mg/kg/injection, schedule: Q04DX003 (ip), vehicle: saline with Tween-80) 95 % of control; (dose: 20.0 mg/kg/injection, schedule: Q04DX003 (ip), vehicle: saline with Tween-80) 90 % of control.
In the case of `C[N+](C)(C)[C@H]1CCCC[C@@H]1O`, the T/C (dose: 50.0 mg/kg/injection, schedule: Q01DX005 (ip), vehicle: distilled water + alcohol) was 104 % of control; the T/C (dose: 100.0 mg/kg/injection, schedule: Q01DX005 (ip), vehicle: distilled water + alcohol) is 99 % of control; the T/C (dose: 200.0 mg/kg/injection, schedule: Q01DX005 (ip), vehicle: distilled water + alcohol) is 105 % of control.
As for `COc1ccc2cc1Oc1ccc(cc1)CC1c3cc(OC)c(cc3CCN1C)Oc1c(OC)c(OC)cc3c1C(C2)N(C)CC3` (stereo not drawn), the T/C runs as follows: (dose: 12.5 mg/kg/injection, schedule: Q01DX005 (ip), vehicle: Klucel (hydroxypropylcellulose) (HPC)) 92 % of control; (dose: 25.0 mg/kg/injection, schedule: Q01DX005 (ip), vehicle: Klucel (hydroxypropylcellulose) (HPC)) 95 % of control; under setting [9], 94 % of control; (dose: 100.0 mg/kg/injection, schedule: Q01DX001 (ip), vehicle: saline with Tween-80) 98 % of control; under setting [10], 86 % of control; (dose: 200.0 mg/kg/injection, schedule: Q01DX001 (ip), vehicle: saline with Tween-80) 86 % of control. For the same molecule, the T/C (dose: 400.0 mg/kg/injection, schedule: Q01DX001 (ip), vehicle: saline with Tween-80) is 86 % of control.
In the case of `N=C(/C(=C/c1ccccc1)c1ccccc1)c1ccccc1`, the T/C under setting [7] is 107 % of control; the T/C under setting [8] was 113 % of control; the T/C (dose: 200.0 mg/kg/injection, schedule: Q01DX009 (ip), vehicle: Klucel (hydroxypropylcellulose) (HPC)) was 118 % of control.
In the case of `COC1=C(OC)C(=O)C2=C(OCO2)C1=O`, the T/C was 104 % of control under setting [1], 100 % of control under setting [2] and 107 % of control under setting [3].
The matching figures for `COc1cc2c(c(C3C(=O)N(C)c4ccc(Br)cc43)c1OC)OCO2` (stereo not drawn): 95 % of control, 91 % of control and 98 % of control.
As to `Clc1ccc2c(NCCCC3CCCN4CCCCC34)ccnc2c1` (stereo not drawn), the T/C under setting [9] was 99 % of control and the T/C under setting [10] was 98 % of control.
